The values that follow come from the NIST ThermoML archive (doi:10.1016/j.fluid.2007.05.026).

Molecules are shown by their SMILES. ± gives the expanded uncertainty stated by the source.

In general, mass density refers to the mass of a sample divided by its volume. By refractive index is commonly meant a measure of how strongly the sample bends light.

For series [1] the following is noted: for mass density: 101.33 kPa, Vibrating tube method; for Normal melting temperature: visual observation.
Series [2] in a line: refractive index (Na D-line) (dimensionless). To be noted: 101.33 kPa, Liquid, Standard Abbe refractometry.

For `Oc1ccc(O)cc1` [1,4-benzenediol], the mass density in series [1] (298.15 K, Crystal) stood at 1338 ± 2 kg/m3. In series [1] (Crystal), the Normal melting temperature was 171.40 ± 0.5 °C.
Regarding `CC(=O)CC(C)C` [4-methylpentan-2-one], the mass density in series [1] (298.15 K, Liquid) was 799.8 ± 0.3 kg/m3. Further, in series [1] (Liquid, Manometric method), the Normal boiling temperature worked out at 117.60 ± 0.1 °C. Moreover, the refractive index in series [2] (298.15 K) is listed as 1.396 ± 0.0008.
On to `Oc1ccccc1` [phenol], for which the mass density in series [1] (314.45 K, Liquid) is 1061 ± 1 kg/m3. For the same compound, the Normal melting temperature in series [1] (Crystal) is 41.30 ± 0.5 °C. The refractive index in series [2] (314.45 K) came to 1.5425 ± 0.0007.
